Columns and labels:
MCF7 cells = experiment: zebrafish xenotransplantation tumor model (zebrafish model of hepatocarcinoma), oral dosing with feed for 14 days; type: in vivo
Procedure: The study was carried out in group sizes of 6 adult fish. Fish were induced with tumor through xenotransplantation of log phase cells. Groups were treated with compounds through oral dosing and treated groups were compared to vehicle treated, to quantify activity against tumor.
Fishes were anesthetized using cold water of 15° C. and 3 ul of 1×10^6 log phase MCF7 cells were injected into the peritoneum to induce tumor. Fish were transferred to housing tanks and maintained for 21 days until tumor reached maximum growth phase.
The stock compound is prepared by dissolving appropriate amount of compound in 1 ml of Phosphate Buffered Saline (PBS—8 g of NaCl, 0.2 g of KCl, 1.44 g of Na2HPO4 and 0.24 g of KH2PO4 is made to 1 litre and pH adjusted to 7.4.) containing 20% DMSO and 30% fish feed grade coconut oil and stored at 4° C. until use.
Fishes were dosed by mixing the compound with feed for 14 days. A per day dosing weight of compound was dissolved in 3 ul of compound dissolving medium and added to a pellet. The pellets were dried at 70 degrees to remove moisture prior to adding compound and post addition and absorption of compound the pellets were transferred to 4° C.
Statistical comparisons were made using GraphPad. Student's t test with a 95% confidence interval was performed using a two-way ANOVA at an alpha=0.05 (95% confidence interval). Significance is denoted with asterisks: ns not significant, *P<0.05, **P<0.01, ***P<0.001, ****P<0.0001.

[1] = DSC, FIG. 5
Procedure: DSC measurements were carried out using STA 6000 (Simultaneous Thermal Analyzer TG with DSC/DTA).
TGA measurements were carried out using STA 6000 (Simultaneous Thermal Analyzer TG with DSC/DTA).

[2] = crystals from 95% ethanol, Example 3
Procedure: Mixture of dichloroacetic acid (V) (1.28 g, 1.2894 mmol) and tromethamine (DI) (1.2 g) are dissolved in 10 ml of 95% ethanol.

[3] = 5 mM concentration, 14 days treatment, FIG. 8

Molecule	mortality (MCF7 cells; 1 mM concentration, FIG. 7)	relative neovascularization reversal (MCF7 cells; 1 mM concentration, FIG. 7) [%]	tumor reversal (MCF7 cells; 1 mM concentration, FIG. 7) [%]	mortality (MCF7 cells; [3])	neovascularization reversal (MCF7 cells; 5 mM concentration, FIG. 8)	relative tumor reversal (MCF7 cells; 5 mM concentration, FIG. 8)	thermally stable upto [1] [°C]	water solubility [2]
O=C([O-])C(Cl)Cl.[Na+] [Formula (VI), sodium dichloroacetate, reference compound]	70%	60	40	90%	70%	50%	–	–
dichloroacetate tromethamine [Formula (VII)]	No mortality	≤ 90	≤ 60	No mortality	complete	up to 90%	≤ 150	water soluble
